Measurements: patent publication EP0909530A1, “Increased solubility of water soluble compounds” (BASF CORPORATION, priority 1997, dated 1999)

Assay: Crystal formation in acifluorfen solution with co-solvents after cold storage (Example 2)
Assay type: physicochemical
Conditions: for Crystal Formation (%): stored at 5°C for 4 days, read at room temperature; for inhibition of precipitate: result in words
Experimental: An aqueous solution having a concentration of 46.8 % acifluorfen (sodium salt, Rohm and Haas, Inc.; significant crystallization observed) was heated to about 50°C to 60°C and stirred until the crystals dissolved (about ten hours). The solution was allowed to cool to room temperature. The dispersants were separately added to the solutions containing the acifluorfen to form a 1.0% solution (by weight) of the dispersant. The resulting samples were stored at 5°C for four days.
After four days, the samples were removed from storage and allowed to reach room temperature and the volume occupied by crystals was calculated (visual estimates) . The results were obtained by observation using a polarized Nikon Optiphot-2 Pol microscope.
Co-Solvents were evaluated for their ability to inhibit precipitation of acifluorfen in aqueous solutions. The experiment was carried-out using the same steps as described for the dispersants of Example 1. The co-solvents were evaluated at 5% and 10% by total weight of the solution. The formulations were stored at 5°C for 4 days and the percent crystal volume recorded after the temperature reached room temperature. […]

SMILES | Crystal Formation (%) (co-solvent Amount 5 %) | Crystal Formation (%) (co-solvent Amount 10 %) | inhibition of precipitate
CCCCOCCO [Butyl Cellosolve] | 10 | 15 | most significant inhibition
OCCO [Ethylene Glycol] | 10 | 15 | most significant inhibition
CC(O)CO (centres unmarked) [Propylene Glycol] | 10 | 80 | –
